Assays:
[1] = tested on: primary cultured cortical neurons; test: Measurement of uptake of BrU (transcription) in AMA-treated cortical neurons; type: cell-based, rat; settings: three different concentrations of AMA
[2] = tested on: primary cultured cerebellar neurons; test: Measurement of uptake of BrU (transcription) in AMA-treated cerebellar neurons; type: cell-based, rat; settings: three different concentrations of AMA
Method: (§1) First, solutions containing three different concentrations of AMA were added to culture media of Hela cells, primary cultured cortical neurons of rat embryo (E15), and primary cultured cerebellar neurons of rat. […] The AMA-induced cellular death was significant particularly in the primary cultured neurons and their half-life period was five days or more—the primary cultured neurons died obviously earlier than those that had not been treated with AMA. […] In this AMA-induced cellular death, neuronal cell death progressed very slowly as compared with low-potassium-induced apoptosis of cerebellar neurons.
A cerebral cortical tissue segregated from E17 Wistar rat embryo and a cerebellar tissue segregated from P7 Wistar rat novelborn were shredded with a razor, and treated with a phosphate buffered saline (hereinafter referred to as “PBS”; pH 7.5) containing 0.25% trypsin (Gibco) at 37° C. for 20 min, with gentle shaking every 5 min. Subsequently, the reaction was quenched by replacing the PBS with DMEM containing a 50% fetal bovine serum (hereinafter referred to as “FBS”), and DNaseI (Boehringer Mannheim) was added to a final concentration of 100 μg/ml. The tissues were segregated gently by pipetting with a blue tip. […]

primary cultured neurons = test: AMA-induced cellular death of primary cultured neurons (Trypan Blue cellular death assay); type: cell-based, rat
Method: as §1
A cerebral cortical tissue segregated from E17 Wistar rat embryo and a cerebellar tissue segregated from P7 Wistar rat novelborn were shredded with a razor, and treated with a phosphate buffered saline (hereinafter referred to as “PBS”; pH 7.5) containing 0.25% trypsin (Gibco) at 37° C. for 20 min, with gentle shaking every 5 min. Subsequently, the reaction was quenched by replacing the PBS with DMEM containing a 50% fetal bovine serum (hereinafter referred to as “FBS”), and DNaseI (Boehringer Mannheim) was added to a final concentration of 100 μg/ml. The tissues were segregated gently by pipetting with a blue tip. The cells were filtrated through a nylon mesh (FALCON, pore size: […]) by centrifuge for precipatation and resuspended in DMEM additionally containing 20 mM glucose, 16 mM sodium hydrogen carbonate, 4 mM glutamine, 25 μg/ml gentamicin and 10% FBS. The suspension was added into a polylysine-coated 24-well plate (Corning) and the cells were cultured so that each well has 3×10^5 cells. After 12 hours, cytosine arabinoside was added to the culture wells to a final concentration of […] in order to prevent glial cell proliferation. […]
The cells were treated for 5 min with 0.4% Trypan Blue solution (Invitrogen). […] In these spots the numbers of blue-stained cells (dead cells) and non-stained cells (living cells) were counted to a total of at least 2,000.

Hela cells = test: AMA-induced cellular death of Hela cells; type: cell-based; settings: AMA-treated Hela cells
Method: as §1
The cells were treated for 5 min with 0.4% Trypan Blue solution (Invitrogen). In each experiment, 10-20 spots were randomly selected from each of the three dishes at 100× magnification. In these spots the numbers of blue-stained cells (dead cells) and non-stained cells (living cells) were counted to a total of at least 2,000.

[3] = tested on: cell line and primary neurons; test: Genome DNA analysis for DNA ladders after AMA treatment; type: cell-based; settings: genome DNA analysis of the cell line and primary neurons after AMA treatment
YAP = test: Northern blotting of YAP expression after AMA; type: cell-based, rat; settings: transcription stage
Method: Next, in order to clarify the molecular mechanism underlying the OP (omega process), we performed microarray analysis. Expression of genes associated with AMA-induced cellular death of cortical neurons and cerebellar neurons and expression of genes associated with low-potassium-induced apoptosis of cerebellar neuron were compared. Experiment was performed twice for each type of cellular death. This microarray analysis led to the identification of 8 genes that offered different expression levels both in apoptosis and OP, and 11 genes that offered different expression levels specifically in OP. The latter set of genes contained YAP, a transcriptional activation factor (coactivator) which is known to play a key role in p73-mediated apoptosis.
Ten micrograms of total RNA extracted from the primary cultured neurons was electrophoresed on a MOPS/formaldehyde gel. The separated RNA fragments were transferred and immobilized to Hybond-N (Pharmacia) by UV cross-linking (exposure dose=120,000 μJ/cm^2). The full-length cDNA with the 61nt insert was cleaved from pBSins61 and purified by passing it through a gel and labeled with [a32P]dCTP (Amersham) using Random Primer DNA-labeling kit (Takara). The probes labeled with 32P were reacted with a nylon film at 60° C. and allowed to stand overnight for permeation. […]

CC[C@H](C)[C@@H]1NC(=O)CNC(=O)[C@@H]2Cc3c([nH]c4cc(O)ccc34)[S+]([O-])C[C@@H](NC(=O)CNC1=O)C(=O)N[C@@H](CC(N)=O)C(=O)N1C[C@H](O)C[C@H]1C(=O)N[C@@H]([C@@H](C)[C@@H](O)CO)C(=O)N2 (stereo in doubt) [AMA, α-amanitin]
transcription (uptake of BrU) [1]: suppressed transcription
transcription (uptake of BrU) [2]: suppressed transcription
concentration dependence of cellular death rate (primary cultured neurons; AMA 10 μg/ml to 250 μg/ml): dependent on AMA concentration
cellular death (proportion of living cells) (primary cultured neurons; AMA-treated neurons): induces progressive cellular death
time before half the population of the neural cells died (half-life period) (primary cultured neurons; neuronal cells treated with α-amanitin): ≥ 120 h
cellular death (proportion of living cells) (Hela cells): induces progressive cellular death
DNA ladders [3]: no DNA ladders were observed
YAP expression (YAP): down-regulated YAP expression

Source: US7951928B2, “Gene encoding a protein and preventive/remedy for neurodegenerative diseases such as polyglutamine diseases by utilizing the same” (Tokyo Medical and Dental University, priority 2004, dated 2011)
